Test results taken from patent EP0353049A2, “NAD-independent alpha- glycerol-3-phosphate dehydrogenases, production and use therof in triglyceride and glycerol determinations” (Genzyme (U.K.) LTD., priority 1988, dated 1990).

Tests used:
[1] = target: T1, NAD-independent α-glycerol-3-phosphate dehydrogenase (Priestia megaterium, UniProt D5DYU7); assay: α-glycerol-3-phosphate dehydrogenase activity assay (rate of INT reduction, absorbance at 505nm, 37°C); assay type: biochemical, B. megaterium; details: concentration of inhibitor bringing about 50% inhibition
T1 sequence (D5DYU7 1-559): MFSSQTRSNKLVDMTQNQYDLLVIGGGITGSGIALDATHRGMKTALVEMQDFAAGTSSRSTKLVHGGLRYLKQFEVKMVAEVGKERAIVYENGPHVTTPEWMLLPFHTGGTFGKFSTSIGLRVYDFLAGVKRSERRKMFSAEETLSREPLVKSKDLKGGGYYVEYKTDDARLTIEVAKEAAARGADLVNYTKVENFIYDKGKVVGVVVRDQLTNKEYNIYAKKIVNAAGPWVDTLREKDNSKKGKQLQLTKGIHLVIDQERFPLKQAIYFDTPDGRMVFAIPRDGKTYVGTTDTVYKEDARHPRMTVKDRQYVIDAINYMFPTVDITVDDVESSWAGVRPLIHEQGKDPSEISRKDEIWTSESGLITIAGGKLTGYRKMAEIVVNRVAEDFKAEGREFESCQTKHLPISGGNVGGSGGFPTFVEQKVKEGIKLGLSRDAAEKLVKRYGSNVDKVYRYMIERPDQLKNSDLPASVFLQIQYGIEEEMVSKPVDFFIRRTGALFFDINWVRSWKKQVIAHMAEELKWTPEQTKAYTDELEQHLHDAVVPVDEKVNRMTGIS
Method: Aliquots of the resulting cell-free extract and other samples containing partially purified α-glycerol-3-phosphate dehydrogenase were used in the following assay test system:
The rate of change of absorbance was measured at 505nm, 37°C in a spectrophotometer. According to such test, the specific activity of the purified enzyme (from gel filtration chromatography) was 1.0 unit/mg protein; a unit is number of µmoles of INT reduced per min.

enzyme from E. coli = enzyme from E. coli (Escherichia coli, UniProt P13035); details: cited from earlier work
enzyme from E. coli, sequence (P13035 whole entry): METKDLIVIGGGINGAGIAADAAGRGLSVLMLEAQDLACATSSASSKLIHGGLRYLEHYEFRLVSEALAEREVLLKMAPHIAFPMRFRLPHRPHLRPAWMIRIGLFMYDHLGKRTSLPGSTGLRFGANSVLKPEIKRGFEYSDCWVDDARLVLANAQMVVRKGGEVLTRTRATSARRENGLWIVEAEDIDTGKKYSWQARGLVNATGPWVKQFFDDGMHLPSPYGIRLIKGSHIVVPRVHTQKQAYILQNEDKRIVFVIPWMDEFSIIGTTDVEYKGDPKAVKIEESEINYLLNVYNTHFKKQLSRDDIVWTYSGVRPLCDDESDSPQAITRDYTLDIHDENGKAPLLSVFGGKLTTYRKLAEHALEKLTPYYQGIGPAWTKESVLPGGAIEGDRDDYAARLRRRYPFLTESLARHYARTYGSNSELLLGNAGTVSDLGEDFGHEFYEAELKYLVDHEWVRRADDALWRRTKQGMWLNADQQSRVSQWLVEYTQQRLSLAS

Compound	50% inhibition of enzyme activity (concentration) [1] [%]	Km (enzyme from E. coli) [µM]
ammonium sulphate	1	
O=P(O)(O)OC[C@H](O)CO [L-α-glycerol-3-phosphate]		400
